Experimental data published in publication PMC3965853 (Cancer chemotherapy and pharmacology, 2014).
Where “and” joins values, the source holds several entries; their conditions need not be identical. Identical values can stand only once. Entries after “also recorded” stand apart in the source; their conditions may differ.

Tests used:
[1] = Topotecan pharmacokinetics in plasma and urine without and with erlotinib; type: in vivo, patients; conditions: for CLrenal, Mean (SD) / CLrenal, Median / CLrenal, Range / CL, Mean (SD) / CL, Median / CL, Range / Dosage-normalized AUC, Range: total topotecan; for CLrenal, Mean (SD) / CLrenal, Median / CLrenal, Range: n 13; for CL, Mean (SD) / CL, Median / CL, Range / Dosage-normalized AUC, Range: n 19
[2] = system: platinum refractory/resistant ovarian cancer; conditions: lapatinib in combination with topotecan, group of 18 patients; cited from earlier work
[3] = system: relapsed/refractory ovarian cancer; conditions: topotecan and lapatinib, 35 patients evaluable; cited from earlier work
[4] = system: refractory solid tumors; experiment: Antitumor response assessment; type: in vivo, patients
[5] = 30 min iv infusion days 1 to 5 of 21-day cycle, with 150 mg oral erlotinib daily
[6] = all patients n = 28, topotecan + erlotinib 150 mg
[7] = topotecan 0.75 mg/m^2 + erlotinib 150 mg, n = 8
[8] = topotecan 1.0 mg/m^2 + erlotinib 150 mg, n = 14
[9] = topotecan 1.25 mg/m^2 + erlotinib 150 mg, n = 6

With C#Cc1cccc(Nc2ncnc3cc(OCCOC)c(OCCOC)cc23)c1 [erlotinib] the “effect of erlotinib on topotecan clearance / disposition” value ([1]; erlotinib 150 mg daily, oral) was “does not affect the disposition of topotecan to a clinically significant extent; also recorded: did not have a clinically significant effect on topotecan clearance or exposure; also recorded: no significant effect on topotecan systemic clearance”.
For CS(=O)(=O)CCNCc1ccc(-c2ccc3ncnc(Nc4ccc(OCc5cccc(F)c5)c(Cl)c4)c3c2)o1 [lapatinib], the “partial response, patients” value [2] is listed as “One partial response”, the “patients deriving clinical benefit” value [2] is listed as “three patients” and the “disease stabilization, patients” value [3] is listed as 12. For the same compound, the “partial response, patients” value [3] was “Five patients”.
In the case of CC[C@@]1(O)C(=O)OCc2c1cc1n(c2=O)Cc2cc3c(CN(C)C)c(O)ccc3nc2-1 [topotecan], the “Best overall response: Complete response, % of patients” value [4, 6] is reported as 0%, the “Best overall response: Not evaluable, % of patients” value [4, 6] is reported as 21.4% and the “Best overall response: Not evaluable, No. of Patients” value [4, 6] is reported as 6. The “Best overall response: Partial response, % of patients” value [4, 6] was 7% and 7.1%, the “Best overall response: Progressive disease, % of patients” value [4, 6] was 29% and 28.6% and the “Best overall response: Progressive disease, No. of Patients” value [4, 6] was 8. For the same compound, the “Best overall response: Stable disease, % of patients” value [4, 6] was 42.9%, the “Best overall response: Stable disease, No. of Patients” value [4, 6] was 12 and the “Best overall response: Complete response, No. of Patients” value [4, 7] was 0. For the same compound, the “Best overall response: Not evaluable, No. of Patients” value [4, 7] was 1, the “Best overall response: Partial response, No. of Patients” value [4, 7] was 0 and the “Best overall response: Progressive disease, No. of Patients” value [4, 7] was 4. For the same compound, the “Best overall response: Stable disease, No. of Patients” value [4, 7] was 3, the “Best overall response: Complete response, No. of Patients” value [4, 8] was 0 and the “Best overall response: Not evaluable, No. of Patients” value [4, 8] was 4. For the same compound, the “Best overall response: Partial response, No. of Patients” value [4, 8] was 1, the “Best overall response: Progressive disease, No. of Patients” value [4, 8] was 4 and the “Best overall response: Stable disease, No. of Patients” value [4, 8] was 5. For the same compound, the “Best overall response: Complete response, No. of Patients” value [4, 9] was 0, the “Best overall response: Not evaluable, No. of Patients” value [4, 9] was 1 and the “Best overall response: Partial response, No. of Patients” value [4, 9] was 1. The “Best overall response: Progressive disease, No. of Patients” value [4, 9] was 0, the “Best overall response: Stable disease, No. of Patients” value [4, 9] was 4 and the “CLrenal, Mean (SD)” value ([1]; Cycle 1 (without erlotinib)) was 4.95 (2.38) L/h/m^2. For the same compound, the “CLrenal, Median” value ([1]; Cycle 1 (without erlotinib)) was 4.61 L/h/m^2, the “CLrenal, Range” value ([1]; Cycle 1 (without erlotinib)) was 1.29–9.12 L/h/m^2 and the “CL, Mean (SD)” value ([1]; Cycle 1 (without erlotinib)) was 9.41 (3.40) L/h/m^2. The “CL, Median” value ([1]; Cycle 1 (without erlotinib)) was 8.55 L/h/m^2, the “CL, Range” value ([1]; Cycle 1 (without erlotinib)) was 4.11–14.7 L/h/m^2 and the “Dosage-normalized AUC, Range” value ([1]; Cycle 1 (without erlotinib)) was 35.1 to 142 ng·h/mL. The “CLrenal, Mean (SD)” value ([1]; Cycle 2/3 (with erlotinib)) was 4.07 (1.87) L/h/m^2, the “CLrenal, Median” value ([1]; Cycle 2/3 (with erlotinib)) was 3.84 L/h/m^2 and the “CLrenal, Range” value ([1]; Cycle 2/3 (with erlotinib)) was 1.04–7.04 L/h/m^2. For the same compound, the “CL, Mean (SD)” value ([1]; Cycle 2/3 (with erlotinib)) was 8.60 (3.04) L/h/m^2, the “CL, Median” value ([1]; Cycle 2/3 (with erlotinib)) was 8.57 L/h/m^2 and the “CL, Range” value ([1]; Cycle 2/3 (with erlotinib)) was 3.56–14.6 L/h/m^2. For the same compound, the “Dosage-normalized AUC, Range” value ([1]; Cycle 2/3 (with erlotinib)) was 51.4 to 237.2 ng·h/mL, the “mean (terminal) clearance of topotecan, lower in Cycle 2/3 compared to Cycle 1” value ([1]; with erlotinib vs without, p = 0.17) was 8.6% and the “mean renal clearance of topotecan, decrease in Cycle 2/3 compared to Cycle 1” value ([1]; with erlotinib vs without, p = 0.21) was 17.8%. For the same compound, the “mean dosage-normalized AUC of topotecan, higher in Cycle 2/3 than in Cycle 1” value ([1]; with erlotinib vs without, p = 0.45) was 8.0% and the “maximum tolerated dosage (MTD) of topotecan” value [5] was 1.0 mg/m^2.
